Results: the CheMixHub ionic liquid set
± gives the uncertainty stated by the source.

Test: xn = mol fraction of the nth substance listed
Conditions: for electrical conductivity: 101 kPa; for viscosity: 100 kPa

CCCCCCCCCCCCCCCC[n+]1ccccc1.O=C([O-])c1ccccc1O + CC(C)C[C@H](N)C(=O)O + O
electrical conductivity [S/m]
Conditions | 293.15 K | 298.15 K | 303.15 K | 308.15 K | 313.15 K
x2 = 0.0009002, x1 = 3.6e-07 | 0.000905 ± 5.4e-05 | 0.00101 ± 6.1e-05 | 0.00113 ± 6.8e-05 | 0.00125 ± 7.5e-05 | 0.00138 ± 8.3e-05
x2 = 0.0009002, x1 = 7.2e-07 | 0.00104 ± 6.2e-05 | 0.00117 ± 7e-05 | 0.0013 ± 7.8e-05 | 0.00144 ± 8.6e-05 | 0.00159 ± 9.5e-05
x2 = 0.0009002, x1 = 9.1e-07 | 0.00119 ± 7.1e-05 | 0.00133 ± 8.1e-05 | 0.00148 ± 8.9e-05 | 0.00164 ± 9.8e-05 | 0.00181 ± 0.00011
x2 = 0.0009002, x1 = 1.27e-06 | 0.00132 ± 7.9e-05 | 0.00148 ± 8.9e-05 | 0.00165 ± 9.9e-05 | 0.00183 ± 0.00011 | 0.00201 ± 0.00012
x2 = 0.0009002, x1 = 1.63e-06 | 0.00147 ± 8.9e-05 | 0.00166 ± 9.9e-05 | 0.00184 ± 0.00011 | 0.00204 ± 0.00012 | 0.00225 ± 0.00014
x2 = 0.0009002, x1 = 1.99e-06 | 0.00163 ± 9.8e-05 | 0.00185 ± 0.00011 | 0.00207 ± 0.00012 | 0.00229 ± 0.00014 | 0.00253 ± 0.00015
x2 = 0.0009002, x1 = 2.54e-06 | 0.00179 ± 0.00011 | 0.00203 ± 0.00012 | 0.00229 ± 0.00014 | 0.00255 ± 0.00015 | 0.00282 ± 0.00017
x2 = 0.0009002, x1 = 2.9e-06 | – | – | – | 0.00275 ± 0.00017 | 0.00309 ± 0.00019
x2 = 0.0009002, x1 = 3.08e-06 | 0.00192 ± 0.00012 | 0.00218 ± 0.00013 | 0.00246 ± 0.00015 | – | –
x2 = 0.0009002, x1 = 3.44e-06 | 0.00203 ± 0.00012 | 0.00231 ± 0.00014 | 0.00263 ± 0.00016 | 0.00297 ± 0.00018 | 0.00331 ± 0.0002
x2 = 0.0009002, x1 = 3.81e-06 | – | 0.00243 ± 0.00015 | 0.00276 ± 0.00017 | 0.00311 ± 0.00019 | 0.00348 ± 0.00021
x2 = 0.0009002, x1 = 3.99e-06 | 0.00214 ± 0.00013 | – | – | – | –
x2 = 0.0009002, x1 = 4.35e-06 | 0.00224 ± 0.00013 | 0.00256 ± 0.00015 | 0.00289 ± 0.00017 | 0.00327 ± 0.0002 | 0.00366 ± 0.00022
x2 = 0.0009002, x1 = 4.71e-06 | 0.00235 ± 0.00014 | 0.00268 ± 0.00016 | 0.00303 ± 0.00018 | 0.00342 ± 0.00021 | 0.00383 ± 0.00023
x2 = 0.0009002, x1 = 5.07e-06 | – | – | 0.00316 ± 0.00019 | 0.00356 ± 0.00021 | 0.00399 ± 0.00024
x2 = 0.0009002, x1 = 5.26e-06 | 0.00246 ± 0.00015 | 0.0028 ± 0.00017 | – | – | –
x2 = 0.0009002, x1 = 5.62e-06 | 0.00255 ± 0.00015 | 0.0029 ± 0.00017 | 0.00328 ± 0.0002 | 0.00369 ± 0.00022 | 0.00415 ± 0.00025
x2 = 0.0009002, x1 = 5.98e-06 | 0.00266 ± 0.00016 | 0.00302 ± 0.00018 | 0.00341 ± 0.0002 | 0.00383 ± 0.00023 | 0.0043 ± 0.00026
x2 = 0.001799, x1 = 3.6e-07 | 0.00153 ± 9.2e-05 | 0.00172 ± 0.0001 | 0.00192 ± 0.00012 | 0.00213 ± 0.00013 | 0.00235 ± 0.00014
x2 = 0.001799, x1 = 5.5e-07 | 0.00167 ± 0.0001 | 0.00187 ± 0.00011 | 0.00208 ± 0.00012 | 0.00231 ± 0.00014 | 0.00256 ± 0.00015
x2 = 0.001799, x1 = 9.1e-07 | 0.00179 ± 0.00011 | 0.00201 ± 0.00012 | 0.00224 ± 0.00013 | 0.00249 ± 0.00015 | 0.00275 ± 0.00017
x2 = 0.001799, x1 = 1.09e-06 | 0.00192 ± 0.00012 | 0.00216 ± 0.00013 | 0.00241 ± 0.00014 | 0.00268 ± 0.00016 | 0.00296 ± 0.00018
x2 = 0.001799, x1 = 1.46e-06 | 0.00204 ± 0.00012 | 0.00229 ± 0.00014 | 0.00256 ± 0.00015 | 0.00283 ± 0.00017 | 0.00313 ± 0.00019
x2 = 0.001799, x1 = 1.64e-06 | 0.00212 ± 0.00013 | 0.00239 ± 0.00014 | 0.00267 ± 0.00016 | 0.00297 ± 0.00018 | 0.00329 ± 0.0002
x2 = 0.001799, x1 = 1.82e-06 | 0.00221 ± 0.00013 | 0.00248 ± 0.00015 | 0.00278 ± 0.00017 | 0.00309 ± 0.00019 | 0.00341 ± 0.0002
x2 = 0.001799, x1 = 2e-06 | 0.00227 ± 0.00014 | 0.00257 ± 0.00015 | 0.00288 ± 0.00017 | 0.00321 ± 0.00019 | 0.00356 ± 0.00021
x2 = 0.001799, x1 = 2.19e-06 | 0.00235 ± 0.00014 | – | 0.003 ± 0.00018 | 0.00334 ± 0.0002 | 0.0037 ± 0.00022
x2 = 0.001799, x1 = 2.37e-06 | – | – | – | – | 0.00384 ± 0.00023
x2 = 0.001799, x1 = 2.55e-06 | 0.00242 ± 0.00015 | 0.00275 ± 0.00017 | – | 0.00345 ± 0.00021 | –
x2 = 0.001799, x1 = 2.73e-06 | 0.00249 ± 0.00015 | 0.00284 ± 0.00017 | 0.00322 ± 0.00019 | 0.00361 ± 0.00022 | 0.00402 ± 0.00024
x2 = 0.001799, x1 = 3.1e-06 | 0.00256 ± 0.00015 | 0.00291 ± 0.00017 | 0.0033 ± 0.0002 | 0.0037 ± 0.00022 | 0.00413 ± 0.00025
x2 = 0.001799, x1 = 3.28e-06 | 0.00262 ± 0.00016 | 0.00298 ± 0.00018 | 0.00338 ± 0.0002 | 0.00379 ± 0.00023 | 0.00423 ± 0.00025
x2 = 0.001799, x1 = 3.46e-06 | – | – | – | – | 0.00434 ± 0.00026
x2 = 0.001799, x1 = 3.64e-06 | 0.00269 ± 0.00016 | 0.00306 ± 0.00018 | 0.00347 ± 0.00021 | 0.00389 ± 0.00023 | –
x2 = 0.001799, x1 = 3.83e-06 | 0.00275 ± 0.00017 | 0.00312 ± 0.00019 | 0.00354 ± 0.00021 | 0.00397 ± 0.00024 | 0.00443 ± 0.00027

CCCCCC[n+]1ccn(C)c1.O=S(=O)([O-])C(F)(F)F + CC(C)O
Conditions | viscosity [mPa·s]
293.15 K, x2 = 0.9231 | 3.79 ± 0.38
298.15 K, x2 = 0.1282 | 99 ± 10
298.15 K, x2 = 0.2454 | 67.9 ± 6.8
298.15 K, x2 = 0.469 | 31.4 ± 3.2
303.15 K, x2 = 0.3506 | 41.2 ± 4.1
313.15 K, x2 = 0.9231 | 2.08 ± 0.21

CCOP(=O)([O-])OCC.CC[n+]1ccn(C)c1 + CC(C)O + O
Conditions | viscosity [mPa·s]
298.15 K, x2 = 0.299, x3 = 0.3 | 79 ± 10
313.15 K, x2 = 0.199, x3 = 0.2008 | 90 ± 12
323.15 K, x2 = 0.099, x3 = 0.0998 | 94 ± 14
323.15 K, x2 = 0.15, x3 = 0.1498 | 76 ± 10
